# From patent US20040023362A1, “Degradation of polycyclic aromatic hydrocarbons by microorganisms” (priority 2000, published 2004)
# Key:
# [1] = system: VUN 110,012; assay: Growth of PAH-degrading bacteria on a variety of carbon sources; format: cell-based, Stenotrophomonas maltophilia; details: substrate 50 mg l^−1 (or vapor phase), sole carbon source
# Description: (§1) Gram staining and biochemical tests for bacterial identification were performed according to Collin et al. (1989) following growth in nutrient broth or nutrient agar. […] Compounds tested were added to BSM as a sole carbon and energy source at 50 mg l^−1, and volatile compounds were supplied to the culture in the vapour phase. […] The cells were collected and washed in BSM and the resuspended cells were inoculated into BSM containing different carbon sources. Inoculated BSM without an added carbon source and uninoculated BSM plus carbon source were used as controls. Inocula for the PAH degradation tests were transferred directly from parent cultures, but inocula for other carbon sources were washed prior to inoculation.
# [2] = system: VUN 110,010; assay: as above; format: cell-based, Stenotrophomonas maltophilia; details: substrate 50 mg l^−1 (or vapor phase), sole carbon source
# Description: as §1
# [3] = system: VUN 110,011; assay: as above; format: cell-based, Pseudomonas fluorescens; details: substrate 50 mg l^−1 (or vapor phase), sole carbon source
# Description: as §1
# [4] = system: VUN 110,013; format: cell-based, Burkholderia sp.; details: substrate 50 mg l^−1 (or vapor phase), sole carbon source
# Description: as §1
# [5] = system: strains VUN 10,010, VUN 10,011 and VUN 10,012; assay: Growth of all the strains on compounds as sole carbon and energy source; format: cell-based; details: supplied at 50 mg l^−1
# Description: as §1
# [6] = system: S. maltophilia VUN 10,010; assay: Degradation of single high molecular weight PAHs by high initial populations of VUN 10,010 with surfactant; format: cell-based, Stenotrophomonas maltophilia
# Description: […] Incubations contained a single PAH in BSM at 30° C. The PAH remaining was calculated as a percentage relative to the PAH recovered from the […]. Averages for the test cultures are from triplicate experiments.
# Tergitol NP-10 (5 and 10 g l^−1) was added to BSM broths each containing a single high molecular weight PAH.
# [7] = PAH solubilization by surfactants (apparent solubility, MSR, Km)
# Description: PAHs (approximately 1 g l^−1) were added to a 10 ml solution of BSM plus surfactant in a 30 ml glass reaction vial, which was sealed with an aluminium cap fitted with a septum. Surfactant concentrations corresponded to levels above, below, and at the CMC, and replicates were set up to allow sampling in duplicate at different time intervals up to 72 h. Incubation was performed at 30° C. and 175 rpm. The entire vial contents was collected by syringe and expressed through a preconditioned membrane filter (0.22 μm, Sartorius AG, Germany) to remove solid-phase crystalline PAH while allowing solubilized PAH in the aqueous phase and micellar pseudophase to pass into sterile vials. The filter was preconditioned by purging the filter with a few mls of sample solution to allow sorption saturation of the internal surfaces of the syringe, filter and needle. The filtrates were extracted with dichloromethane (DCM), and the concentration of solubilized PAH was determined by GC-FID as described below.
# The effectiveness of a particular surfactant in solubilizing a given PAH can be assessed by determining the molar solubilization ratio (MSR) and micelle/water partition coefficient (Km). In our study, the concentrations of added PAHs were well in excess of aqueous saturation concentrations; therefore the MSR value of each compound can be obtained from the slope of the curve generated from a plot of PAH concentration versus surfactant concentration for surfactant concentrations above CMC (Edwards et al, 1991).
# Km values can be determined from the measured MSR values according to the following equation (Edwards et al, 1991): [formula]
# ^SPAH, CMC is the apparent solubility of the PAH (mol l^−1) at surfactant CMC. VW is the molar volume of water at 30° C. ie. 0.018015 l mol^−1(Rogers and Mayhew, 1981).
# [8] = system: S. maltophilia VUN 10,010; assay: Degradation of a PAH mixture by VUN 10,010 with surfactant, low initial cell population; format: cell-based, Stenotrophomonas maltophilia; details: for Maximum Specific Degradation Rate: — = not appreciable
# Description: The incubations were conducted in BSM at 30° C., using low initial cell populations. The PAH remaining was calculated as a percentage relative to the PAH recovered from the uninoculated control. Averages for the test cultures are from triplicate experiments.
# A low initial cell population of around 9×10^3 cells ml^−1 was used.
# [9] = Tergitol NP-10 5 g l^−1, Single PAH
# [10] = Tergitol NP-10 10 g l^−1, Single PAH
# [11] = Tergitol NP-10 5 g l^−1, Mixed PAH
Compound,Growth [1],Growth [2],Growth [3],Growth [4],growth on compound as the sole carbon and energy source [5],further results
"Oc1c(Cl)c(Cl)cc(Cl)c1Cl [2,3,5,6-tetrachloro-phenol]",+,+,+,+,,
"Oc1cc(Cl)c(Cl)cc1Cl [2,4,5-trichloro-phenol]",+,+,+,+,,
"Oc1cc(Cl)ccc1Cl [2,5-dichlorophenol]",+,+,+,+,grew,
Oc1ccc(Cl)cc1 [4-chlorophenol],+,+,−,+,grew,
O=[N+]([O-])c1ccc(O)cc1 [4-nitrophenol],−,−,−,−,,
c1ccccc1 [Benzene],+,+,+,+,grew,
O=C(O)c1ccccc1 [Benzoic acid],+,+,+,+,grew,
Oc1ccccc1O [Catechol],+,+,+,+,grew,
O=C(O)C=Cc1ccccc1 [Cinnamic acid],−,+,−,−,,
"c1cc2ccc3ccc4ccc5ccc6ccc1c1c2c3c4c5c61 [Coronene, coronene]",,,,,,"Maximum Specific Degradation Rate ([6]; Brij 35 5 g l^−1, Single PAH): 0.79 mg PAH degraded mg^−1 protein day^−1; percentage change in maximum specific degradation rate due to surfactant addition ([6]; Brij 35 5 g l^−1, Single PAH): +5%; Maximum Specific Degradation Rate ([6]; Brij 35 10 g l^−1, Single PAH): 1.19 mg PAH degraded mg^−1 protein day^−1; percentage change in maximum specific degradation rate due to surfactant addition ([6]; Brij 35 10 g l^−1, Single PAH): +59%; Maximum Specific Degradation Rate ([6]; No Surfactant, Single PAH): 0.75 mg PAH degraded mg^−1 protein day^−1; PAH degradation rate in the presence of surfactants ([6]; Tergitol NP-10 5 and 10 g l^−1, high initial cell population): did not show improved PAH degradation rate; Maximum Specific Degradation Rate [6, 9]: 0.98 mg PAH degraded mg^−1 protein day^−1; percentage change in maximum specific degradation rate due to surfactant addition [6, 9]: +31%; Maximum Specific Degradation Rate [6, 10]: 0.79 mg PAH degraded mg^−1 protein day^−1; percentage change in maximum specific degradation rate due to surfactant addition [6, 10]: +5%"
CC(C)(CO)[C@@H](O)C(=O)NCCC(=O)O [D-panthothenic acid],+,+,+,+,,
"c1ccc2c(c1)-c1cccc3cccc-2c13 [Fluoranthene, fluoranthene]",,,,,,"solubility ([7]; 30° C.): ~1.37 µM; solubility ([7]; 30 °C, aqueous with cosolvent or surfactant or cyclodextrin, thermodynamic from solid): 730 to 810 µM; Maximum Specific Degradation Rate ([6]; Brij 35 5 g l^−1, Single PAH): 3.71 mg PAH degraded mg^−1 protein day^−1; percentage change in maximum specific degradation rate due to surfactant addition ([6]; Brij 35 5 g l^−1, Single PAH): +28%; Maximum Specific Degradation Rate ([6]; Brij 35 10 g l^−1, Single PAH): 12.11 mg PAH degraded mg^−1 protein day^−1; percentage change in maximum specific degradation rate due to surfactant addition ([6]; Brij 35 10 g l^−1, Single PAH): +318%; Maximum Specific Degradation Rate ([6]; No Surfactant, Single PAH): 2.90 mg PAH degraded mg^−1 protein day^−1; Maximum Specific Degradation Rate [6, 9]: 4.54 mg PAH degraded mg^−1 protein day^−1; percentage change in maximum specific degradation rate due to surfactant addition [6, 9]: +57%; Maximum Specific Degradation Rate [6, 10]: 4.59 mg PAH degraded mg^−1 protein day^−1; percentage change in maximum specific degradation rate due to surfactant addition [6, 10]: +58%; Maximum Specific Degradation Rate ([8]; No Surfactant, Mixed PAH): 1.02 mg PAH degraded mg^−1 protein day^−1; percentage change in maximum specific degradation rate due to surfactant addition [8, 11]: +9%; Maximum Specific Degradation Rate [8, 11]: 1.11 mg PAH degraded mg^−1 protein day^−1"
O=C(O)c1cc(O)ccc1O [Gentisic acid],+,+,+,+,,
O=C(O)/C=C\C(=O)O [Maleic acid],+,+,+,+,,
O=[N+]([O-])c1ccccc1 [Nitrobenzene],+,+,−,−,,
Oc1c(Cl)c(Cl)c(Cl)c(Cl)c1Cl [Pentachlorophenol],+,+,−,−,,
O=C(O)c1ccccc1C(=O)O [Phthalic acid],+,+,+,+,grew,
O=C(O)c1ccc(O)c(O)c1 [Protocatechuic acid],+,+,+,+,grew,
CC(=O)C(=O)O [Pyruvate],+,+,+,+,,
O=C(O)c1ccccc1O [Salicylic acid],+,+,+,+,grew,
O=C(O)CCC(=O)O [Succinic acid],+,+,+,+,grew,
Cc1ccccc1 [Toluene],+,+,+,−,grew,
CCCCCCCCCCCCCCCC [n-hexadecane],+,+,+,+,grew,
CCCCCCCC [n-octane],+,+,+,+,grew,
O=C(O)c1ccc(O)cc1 [p-hydroxybenzoic acid],+,+,+,+,grew,
Tween 20,+,+,+,+,grew,
Tween 40,,,,,grew,
Tween 60,,,,,grew,
Tween 80,+,+,+,+,grew,
